Counter-ions that a name gives are not always drawn. Like-named read-outs stand apart in the source and are kept apart here.
How the values were obtained:
[1] = test system: MES-induced seizure model; assay: MES-induced seizure model; type: in vivo, mice; details: for ED50, MES: mice IP, 0.5 hrs
[2] = test system: scMET model; assay: scMET model; type: in vivo, mice; details: for N/F (animals protected over tested): IP quantification, 0.5 h
[3] = test system: 6 Hz (32 mA) model; assay: 6 Hz (32 mA) model; type: in vivo, mice; details: identification screen IP
Experimental: ASP469016 was tested in our initial T31 (MES/scMET/Tox) screen at 30, 100, and 300 mg/kg. The data for each condition is presented as N/F, where N equals the number of animals protected and F equals the number of animals tested. For tests of toxicity (TOX), N equals the number of animals displaying toxic effects and F equals the number of animals tested. Codes in the C column refer to comments from the technicians performing the experiment and are defined in the comments section if necessary. Any deaths are noted. As shown in the 6 Hz (32 mA) model only 1/4 animals were protected at 100 mg/kg at 30 min. In the MES-induced seizure model only 1/4 animals were protected at 100 and 300 mg/kg at 30 min. No toxicity (unable to grasp rotorod) or activity was detected at any other dose or time point tested.

[4] = test system: mice; details: mouse, in vivo
[5] = test system: scn1Lab mutant zebrafish; type: in vivo, Danio rerio (zebrafish); details: for inhibition of spontaneous seizure behavior, initial screen: 667 μM; for swim activity / seizure behavior, third trial: 100 μM
[6] = test system: wild-type larvae; assay: DMSO toxicity in larvae; details: dilutions between 0.01 and 100%; n=12 fish per concentration
[7] = test system: scn1Lab mutant zebrafish; type: in vivo, Danio rerio (zebrafish); details: for forebrain electrographic seizure activity after the locomotion assay: 100 μM
[8] = test system: WT zebrafish exposed to 15 mM pentylenetetrazole; assay: PTZ-induced seizure behavior, locomotion assay; type: in vivo; details: 100 μM, n=10
[9] = 1 mM (KD: 48 hr exposure), 5 dpf

Clc1ccc(Cn2c(CN3CCCC3)nc3ccccc32)cc1 [ASP469016]
activity during determination of the TPE in the MES model ([1]; 300 mg/kg starting dose): no activity | activity in the qualitative MES screen ([1]; 100 and 300 mg/kg doses): some activity | N/F (animals protected over tested) ([1]; IP quantification, 350 mg/kg, 0.5 h): 0/8 | N/F (animals protected over tested) ([1]; IP quantification, 400 mg/kg, 0.5 h): 7/8 | N/F (animals protected over tested) ([1]; IP quantification, 500 mg/kg, 0.5 h): 4/4 | N/F (animals protected over tested) ([1]; identification screen IP, 30 mg/kg, 0.5 h): 0/4 | N/F (animals protected over tested) ([1]; identification screen IP, 30 mg/kg, 2.0 h): 0/4 | N/F (animals protected over tested) ([1]; identification screen IP, 100 mg/kg, 0.5 h): 1/4 | N/F (animals protected over tested) ([1]; identification screen IP, 100 mg/kg, 2.0 h): 0/4 | N/F (animals protected over tested) ([1]; identification screen IP, 300 mg/kg, 0.5 h): 1/4 | N/F (animals protected over tested) ([1]; identification screen IP, 300 mg/kg, 2.0 h): 0/4 | ED50, MES [1]: < 400 mg/kg | ED50, MES ([1]; listed as 469016): <400.0 mg/kg | N/F (animals protected over tested) ([1]; time to peak effect, 300 mg/kg, 0.25 h): 0/4 | N/F (animals protected over tested) ([1]; time to peak effect, 300 mg/kg, 0.5 h): 0/4 | N/F (animals protected over tested) ([1]; time to peak effect, 300 mg/kg, 1.0 h): 0/4 | N/F (animals protected over tested) ([1]; time to peak effect, 300 mg/kg, 2.0 h): 0/4 | N/F (animals protected over tested) ([1]; time to peak effect, 300 mg/kg, 4.0 h): 0/4 | N/F (animals protected over tested) ([1]; time to peak effect, 500 mg/kg, 0.25 h): 2/4 | N/F (animals protected over tested) ([1]; time to peak effect, 500 mg/kg, 1.0 h): 0/4 | N/F (animals protected over tested) ([1]; time to peak effect, 500 mg/kg, 2.0 h): 0/4 | N/F (animals protected over tested) ([1]; time to peak effect, 500 mg/kg, 4.0 h): 0/4 | N/F (animals protected over tested) ([2]; 200 mg/kg): 0/8 | N/F (animals protected over tested) ([2]; 250 mg/kg): 0/4 | ED50, SCMET ([2]; mice IP, 0.5 hrs): >250.0 mg/kg | activity in the scMET model ([2]; quantitative testing): No activity | N/F (animals protected over tested) ([3]; 30 mg/kg, 0.5 h): 0/4 | N/F (animals protected over tested) ([3]; 30 mg/kg, 2.0 h): 0/4 | N/F (animals protected over tested) ([3]; 100 mg/kg, 0.5 h): 1/4 | N/F (animals protected over tested) ([3]; 100 mg/kg, 2.0 h): 0/4 | N/F (animals protected over tested) ([3]; 300 mg/kg, 0.5 h): 0/4 | N/F (animals protected over tested) ([3]; 300 mg/kg, 2.0 h): 0/4 | activity or toxicity (unable to grasp rotorod) [4]: No activity or toxicity | N/F (animals toxic over tested) ([4]; 400 mg/kg): 0/8 | N/F (animals toxic over tested) ([4]; 500 mg/kg): 0/4 | ED50, TOX ([4]; ip): >500 mg/kg | N/F (animals toxic over tested) ([4]; ip, 30 mg/kg): 0/8 | N/F (animals toxic over tested) ([4]; ip, 100 mg/kg): 0/8 | N/F (animals toxic over tested) ([4]; ip, 300 mg/kg): 0/8 | N/F (animals toxic over tested) ([4]; ip, 500 mg/kg): 0/4

CC(=O)Nc1nnc(S(N)(=O)=O)s1 [Acetazolamide]
effect on locomotor seizure behavior ([5]; zebrafish, in vivo): increased seizure behavior

C[S+](C)[O-] [DMSO]
lethal DMSO dilution [6]: > 25%

NCC(O)CC(=O)O (centres unmarked) [aminohydroxybutyric acid]
inhibition of spontaneous seizure behavior, initial screen ([5]; 5 dpf, 6-12 fish): ineffective

O=C(CCCl)NCc1ccccc1 [beclamide]
inhibition of spontaneous seizure behavior, initial screen [5]: ineffective

NC(=O)N1c2ccccc2C=Cc2ccccc21 [carbamazepine]
Epileptiform event frequency (burst frequency; interictal- and ictal-like discharges) ([7]; zebrafish, in vivo): increased burst frequency | fish in which epileptiform activity became more frequent ([7]; zebrafish, in vivo): 2 of 7

Clc1ccc(Cn2c(CN3CCCC3)nc3ccccc32)cc1 [clemizole]
forebrain electrographic seizure activity after the locomotion assay [7]: effective in suppressing spontaneous seizure activity | burst duration ([7]; n=7): 154 ± 127 ms | burst frequency ([7]; n=7): 0.2±0.01 bursts/min | fractional time spent seizing ([7]; n=7): 0.03±0.02% | swim activity / seizure behavior, third trial [5]: effective in suppressing spontaneous seizure activity | seizure behavior in the locomotion assay ([5]; n=33): no significant effect | seizure-induced swim activity and mean velocity, re-test ([5]; zebrafish, in vivo): effective in reducing seizure-induced swim activity and mean velocity | PTZ-induced seizure behavior [8]: effective in reducing seizure behavior

C#CCN(C)CCCOc1ccc(Cl)cc1Cl [clorgiline HCl]
forebrain electrographic seizure activity after the locomotion assay [7]: electrographic seizure events were still observed | swim activity / seizure behavior, third trial [5]: reduced swim activity | seizure-induced swim activity and mean velocity, re-test ([5]; zebrafish, in vivo): effective in reducing seizure-induced swim activity and mean velocity

CN1C(=O)CN=C(c2ccccc2)c2cc(Cl)ccc21 [diazepam]
fractional time spent seizing ([7]; 1 mM bath applied, 5-6 dpf, vs baseline): reduced | Epileptiform event frequency (burst frequency; interictal- and ictal-like discharges) ([7]; 1 mM bath applied, agar-embedded mutants 5-6 dpf, vs baseline, 7 fish per drug): reduced | effect on locomotor seizure behavior [5, 9]: effectively inhibited seizure behavior

CCC1(C)CC(=O)NC1=O (centres unmarked) [ethosuximide]
fish in which epileptiform activity became more frequent ([7]; zebrafish, in vivo): 4 of 7 | effect on locomotor seizure behavior ([5]; zebrafish, in vivo): increased seizure behavior

CC(=O)[C@H]1CC[C@H]2[C@@H]3CC[C@H]4C[C@](C)(O)CC[C@]4(C)[C@H]3CC[C@]12C [ganaxolone]
effect on locomotor seizure behavior [5, 9]: effective

CC(C)CCCC(C)NC(C)C (centres unmarked) [iproheptine]
convulsive behavior (H1 antihistamines) ([5]; locomotor seizure assay, 5 dpf): failed to suppress convulsive behavior

Nc1nnc(-c2cccc(Cl)c2Cl)c(N)n1 [lamotrigine]
effect on locomotor seizure behavior ([5]; zebrafish, in vivo): no effect

CC[C@@H](C(N)=O)N1CCCC1=O [levetiracetam]
effect on locomotor seizure behavior ([5]; zebrafish, in vivo): no effect

CN1CCc2c(c3ccccc3n2Cc2ccccc2)C1.CN1CCc2c(c3ccccc3n2Cc2ccccc2)C1.O=S(=O)(O)c1cccc2c(S(=O)(=O)O)cccc12 [mebhydrolin napthalenesulfonate]
convulsive behavior (H1 antihistamines) ([5]; zebrafish, in vivo): failed to suppress convulsive behavior

CN1CCC(=C2c3ccccc3Sc3ccccc32)CC1 [pimethixene maleate]
convulsive behavior (H1 antihistamines) ([5]; zebrafish, in vivo): failed to suppress convulsive behavior

[Br-].[K+] [potassium bromide]
Epileptiform event frequency (burst frequency; interictal- and ictal-like discharges) ([7]; zebrafish, in vivo): reduced | fractional time spent seizing ([7]; zebrafish, in vivo): reduced | effect on locomotor seizure behavior ([5]; zebrafish, in vivo): effectively inhibited seizure behavior

CC(C)(C)C(O)/C=C/c1ccc2c(c1)OCO2 (centres unmarked) [stiripentol]
Epileptiform event frequency (burst frequency; interictal- and ictal-like discharges) ([7]; zebrafish, in vivo): reduced | fractional time spent seizing ([7]; zebrafish, in vivo): reduced | effect on locomotor seizure behavior ([5]; zebrafish, in vivo): effectively inhibited seizure behavior

CCNC1(c2cccs2)CCCCC1=O (centres unmarked) [tiletamine]
inhibition of spontaneous seizure behavior, initial screen ([5]; 5 dpf, 6-12 fish): ineffective

Cc1ccc(C(=O)C(C)CN2CCCCC2)cc1 (centres unmarked) [tolperisone HCl]
forebrain electrographic seizure activity after the locomotion assay [7]: electrographic seizure events were still observed | swim activity / seizure behavior, third trial [5]: reduced swim activity | seizure-induced swim activity and mean velocity, re-test ([5]; zebrafish, in vivo): effective in reducing seizure-induced swim activity and mean velocity

C=CC(N)CCC(=O)O (centres unmarked) [vigabatrin]
Epileptiform event frequency (burst frequency; interictal- and ictal-like discharges) ([7]; zebrafish, in vivo): increased burst frequency | fish in which epileptiform activity became more frequent ([7]; zebrafish, in vivo): 6 of 7
